The values below come from US10363239B2, “Method for inhibiting growth of cancer cells” (Pain Therapeutics, Inc., priority 2013, dated 2019).

In general, inhibition refers to the drop in the measured response relative to a control, in per cent.

One test deals with FLNA pentapeptide of SEQ ID NO: 1 (Bn-VAKGL) (Homo sapiens, UniProt P21333). As to the kind of experiment: FITC-NLX-based FLNA screening assay (inhibition of FITC-naloxone binding to Bn-VAKGL on streptavidin plates). The note with it: read-out: Percent Binding Inhibition, FLNA-binding compound 0.01 μM; 10 nM FITC-NLX.
As to `CC1CCC(C(C)C)C(OCC(O)CN2CCc3ccccc3C2)C1` (stereo not drawn) [Compound A0040], the inhibition at 0.01 µM was determined as 45%.
Regarding `O=C1CN(Cc2ccccc2)C2(CCNCC2)N1` [Compound C0115M], the inhibition at 0.01 µM was determined as 47.8%.
Still for that read-out and setting: in the case of `NS(=O)(=O)c1ccc(S(=O)(=O)N2CCC3(CC2)OCCN3S(=O)(=O)c2ccc(S(N)(=O)=O)cc2)cc1` [Compound C0034] it was 29.6%.

The same test, now with this note: read-out: Percent Binding Inhibition, FLNA-binding compound 0.1 μM; 10 nM FITC-NLX.
As to `CC1CCC(C(C)C)C(OCC(O)CN2CCc3ccccc3C2)C1` (stereo not drawn) [Compound A0040], the inhibition at 0.1 µM stood at 50.4%.
The same measure, in the same setting: in the case of `O=C1CN(Cc2ccccc2)C2(CCNCC2)N1` [Compound C0115M] it was 57.8%.
Regarding `NS(=O)(=O)c1ccc(S(=O)(=O)N2CCC3(CC2)OCCN3S(=O)(=O)c2ccc(S(N)(=O)=O)cc2)cc1` [Compound C0034], the inhibition at 0.1 µM amounted to 38.3%.

The test is the same for the next values; noted with them: read-out: Percent Binding Inhibition, FLNA-binding compound 1 μM; 10 nM FITC-NLX.
Take `CC1CCC(C(C)C)C(OCC(O)CN2CCc3ccccc3C2)C1` (stereo not drawn) [Compound A0040]: the inhibition at 1 µM worked out at 56.3%.
As to `O=C1CN(Cc2ccccc2)C2(CCNCC2)N1` [Compound C0115M], the inhibition at 1 µM worked out at 59.9%.
On the same count and under the same terms, in the case of `NS(=O)(=O)c1ccc(S(=O)(=O)N2CCC3(CC2)OCCN3S(=O)(=O)c2ccc(S(N)(=O)=O)cc2)cc1` [Compound C0034] it was 44.8%.

The subject of another test is mu opiate receptor (MOR). Put plainly: MOR agonist activity using [35S]GTPγS binding assay in striatal membranes. In kind it is biochemical. The note with it: 0.1 μM compound. A digest of the protocol:
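Striatal membranes (200 μg) were preincubated 5 min at 30 °C in HEPES pH 7.5 with 100 mM NaCl, 1 mM MgCl2 and 0.5 nM [35S]GTPγS, then 5 min more with 0.1–10 μM compound. Gαo was immunoprecipitated and bound radioactivity counted by scintillation.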
In general terms: Binding of GTPγS marks nucleotide exchange on a G protein.
For the compound `CC1CCC(C(C)C)C(OCC(O)CN2CCc3ccccc3C2)C1` (stereo not drawn) [Compound A0040], the “MOR agonist activity ([35S]GTPγS binding), FLNA-Binding Compound as Agonist 0.1 μM” value is recorded as 46.1%.

The test is the same for the next values; noted with them: 0.1 μM compound relative to DAMGO.
With `CC1CCC(C(C)C)C(OCC(O)CN2CCc3ccccc3C2)C1` (stereo not drawn) [Compound A0040], the “% DAMGO (0.1 μM)” value is given as 23.5%.

The test is the same for the next values; noted with them: 1 μM compound.
On to `CC1CCC(C(C)C)C(OCC(O)CN2CCc3ccccc3C2)C1` (stereo not drawn) [Compound A0040], for which the “MOR agonist activity ([35S]GTPγS binding), FLNA-Binding Compound as Agonist 1 μM” value is reported as 149.0%.

The test is the same for the next values; noted with them: 1 μM compound + 1 μM β-funaltrexamine.
Turning to `CC1CCC(C(C)C)C(OCC(O)CN2CCc3ccccc3C2)C1` (stereo not drawn) [Compound A0040], the “MOR agonist activity ([35S]GTPγS binding), FLNA-Binding Compound as Agonist 1 μM + BFNA” value is reported as 16.7%.

Staying with this test, now noted: 1 μM compound + BFNA relative to DAMGO + BFNA.
For `CC1CCC(C(C)C)C(OCC(O)CN2CCc3ccccc3C2)C1` (stereo not drawn) [Compound A0040], the “% DAMGO + BFNA” value stood at 22.6%.

The same test, now with this note: 1 μM compound relative to DAMGO.
`CC1CCC(C(C)C)C(OCC(O)CN2CCc3ccccc3C2)C1` (stereo not drawn) [Compound A0040]: the “% DAMGO (1 μM)” value is given as 54.0%.

The test is the same for the next values; noted with them: Series C-1; 0.1 μM compound, relative to DAMGO.
Take `NS(=O)(=O)c1ccc(S(=O)(=O)N2CCC3(CC2)OCCN3S(=O)(=O)c2ccc(S(N)(=O)=O)cc2)cc1` [Compound C0034]: the “% DAMGO (0.1 μM)” value is 61.3%.

The test is the same for the next values; noted with them: Series C-1; 0.1 μM compound; [35S]GTPγS binding to Gαo, striatal membranes.
For the compound `NS(=O)(=O)c1ccc(S(=O)(=O)N2CCC3(CC2)OCCN3S(=O)(=O)c2ccc(S(N)(=O)=O)cc2)cc1` [Compound C0034], the “Concentration of FLNA-Binding Compound as Agonist 0.1 μM” value was determined as 103.6%.

The test is the same for the next values; noted with them: Series C-1; 1 μM compound + 1 μM β-FNA.
With `NS(=O)(=O)c1ccc(S(=O)(=O)N2CCC3(CC2)OCCN3S(=O)(=O)c2ccc(S(N)(=O)=O)cc2)cc1` [Compound C0034], the “Concentration of FLNA-Binding Compound as Agonist 1 μM + BFNA” value turned out to be 80.1%.

The same test, now with this note: Series C-1; 1 μM compound + β-FNA, relative to DAMGO + BFNA.
As for `NS(=O)(=O)c1ccc(S(=O)(=O)N2CCC3(CC2)OCCN3S(=O)(=O)c2ccc(S(N)(=O)=O)cc2)cc1` [Compound C0034], the “% DAMGO + BFNA” value is reported as 482.5%.

Still in this test, the particulars now being: Series C-1; 1 μM compound, relative to DAMGO.
`NS(=O)(=O)c1ccc(S(=O)(=O)N2CCC3(CC2)OCCN3S(=O)(=O)c2ccc(S(N)(=O)=O)cc2)cc1` [Compound C0034]: the “% DAMGO (1 μM)” value is 76.7%.

Still in this test, the particulars now being: Series C-1; 1 μM compound; [35S]GTPγS binding to Gαo, striatal membranes.
As for `NS(=O)(=O)c1ccc(S(=O)(=O)N2CCC3(CC2)OCCN3S(=O)(=O)c2ccc(S(N)(=O)=O)cc2)cc1` [Compound C0034], the “Concentration of FLNA-Binding Compound as Agonist 1 μM” value is reported as 167.9%.

The same test, now with this note: Series C-2; 0.1 μM compound, relative to DAMGO.
On to `O=C1CN(Cc2ccccc2)C2(CCNCC2)N1` [Compound C0115M], for which the “% DAMGO (0.1 μM)” value was 105.7%.

The same test, now with this note: Series C-2; 0.1 μM compound; [35S]GTPγS binding to Gαo, striatal membranes.
`O=C1CN(Cc2ccccc2)C2(CCNCC2)N1` [Compound C0115M]: the “MOR agonist activity, percent [35S]GTPγS binding at the stated compound concentration” value (“MOR agonist activity, percent” below) turned out to be 177.2%.

The test is the same for the next values; noted with them: Series C-2; 1 μM compound + 1 μM β-FNA.
Turning to `O=C1CN(Cc2ccccc2)C2(CCNCC2)N1` [Compound C0115M], the “MOR agonist activity, percent” value is recorded as 118.4%.

The same test, now with this note: Series C-2; 1 μM compound + β-FNA, relative to DAMGO + BFNA.
`O=C1CN(Cc2ccccc2)C2(CCNCC2)N1` [Compound C0115M]: the “% DAMGO + BFNA” value worked out at 249.3%.

Staying with this test, now noted: Series C-2; 1 μM compound, relative to DAMGO.
Turning to `O=C1CN(Cc2ccccc2)C2(CCNCC2)N1` [Compound C0115M], the “% DAMGO (1 μM)” value was determined as 102.0%.

The test is the same for the next values; noted with them: Series C-2; 1 μM compound; [35S]GTPγS binding to Gαo, striatal membranes.
Turning to `O=C1CN(Cc2ccccc2)C2(CCNCC2)N1` [Compound C0115M], the “MOR agonist activity, percent” value was determined as 226.8%.
